Assay results reported in ChEMBL document CHEMBL4020763, “N-(1H-Pyrazol-3-yl)quinazolin-4-amines as a novel class of casein kinase 1δ/ε inhibitors: Synthesis, biological evaluation and molecular modeling studies” (Bioorg Med Chem Lett, 2017).

Tests used:
[1] = test system: MDA-MB-468; assay: Cytotoxicity against human MDA-MB-468 cells by MTT assay; assay type: functional, cell-based
[2] = test system: PANC-1; assay: Growth inhibition of human PANC1 cells at 100 uM by MTT assay relative to control; assay type: functional; conditions: read-out: GI
[3] = test system: HCT-15; assay: Cytotoxicity against human HCT15 cells by MTT assay; assay type: functional, cell-based
[4] = test system: HCT-15; assay: Growth inhibition of human HCT15 cells at 100 uM by MTT assay relative to control; assay type: functional; conditions: read-out: GI
[5] = target: Dual specificity protein kinase CLK1 (Mus musculus, UniProt P22518); assay: Inhibition of recombinant mouse GST-fused CLK1 expressed in Escherichia coli using RS peptide as substrate after 30 mins in presence of ATP by scintillation counting method
[6] = test system: HEK293; assay: Cytotoxicity against HEK293 cells by MTT assay; assay type: cell-based; conditions: Homo sapiens
[7] = target: CDK2/Cyclin A2 (Homo sapiens) (UniProt P24941+P20248); assay: Inhibition of recombinant human CDK2/cyclin A at 10 uM using histone H1 as substrate after 30 mins in presence of ATP by scintillation counting method relative to control; assay type: protein-complex assay
[8] = test system: ZR-75-1; assay: Cytotoxicity against human ZR-75-1 cells by MTT assay; assay type: functional, cell-based
[9] = Growth inhibition of HEK293 cells at 100 uM by MTT assay relative to control; assay type: cell-based; conditions: human, read-out: GI
[10] = test system: MCF7; assay: Growth inhibition of human MCF7 cells at 100 uM by MTT assay relative to control; assay type: functional; conditions: read-out: GI
[11] = species: Sus scrofa; assay: Inhibition of porcine brain CK1-delta/epsilon at 10 uM using CSK peptide as substrate after 30 mins in presence of ATP by scintillation counting method relative to control
[12] = test system: MDA-MB-231; assay: Cytotoxicity against human MDA-MB-231 cells by MTT assay; assay type: functional, cell-based
[13] = test system: MCF7; assay: Cytotoxicity against human MCF7 cells by MTT assay; assay type: functional, cell-based
[14] = target: Dual specificity protein kinase CLK1 (Mus musculus) (UniProt P22518); assay: Inhibition of recombinant mouse GST-fused CLK1 expressed in Escherichia coli at 10 uM using RS peptide as substrate after 30 mins in presence of ATP by scintillation counting method relative to control
[15] = test system: DU-145; assay: Growth inhibition of human DU145 cells at 100 uM by MTT assay relative to control; assay type: functional; conditions: read-out: GI
[16] = target: Cyclin-dependent kinase 5/CDK5 activator 1 (Homo sapiens) (UniProt Q00535+Q15078); assay: Inhibition of recombinant human CDK5/p25 expressed in Escherichia coli at 10 uM using histone H1 as substrate after 30 mins in presence of ATP by scintillation counting method relative to control
[17] = test system: MIA PaCa-2; assay: Growth inhibition of human MIAPaCa2 cells at 100 uM by MTT assay relative to control; assay type: functional; conditions: read-out: GI
[18] = target: Glycogen synthase kinase-3 (Sus scrofa, UniProt B2LUN4+I6LNT8); assay: Inhibition of porcine brain GSK-3 alpha/beta using YRRAAVPPSPSLSRHSSPHQpSEDEEE as substrate after 30 mins in presence of ATP by scintillation counting method
[19] = test system: ZR-75-30; assay: Cytotoxicity against human ZR-7530 cells by MTT assay; assay type: functional, cell-based
[20] = target: CDK9/cyclin T1 (Homo sapiens) (UniProt O60563+P50750); assay: Inhibition of recombinant human CDK9/cyclin T expressed in insect cells at 10 uM using YSPTSPSYSPTSPSYSPTSPSKKKK as substrate after 30 mins in presence of ATP by scintillation counting method relative to control
[21] = test system: ZR-75-1; assay: Growth inhibition of human ZR-75-1 cells at 100 uM by MTT assay relative to control; assay type: functional; conditions: read-out: GI
[22] = Inhibition of M-phase starfish oocytes CDK1/cyclin B using histone H1 as substrate after 30 mins in presence of ATP by scintillation counting method; design: species or system Asteroidea
[23] = target: Glycogen synthase kinase-3 (Sus scrofa) (UniProt B2LUN4+I6LNT8); assay: Inhibition of porcine brain GSK-3 alpha/beta at 10 uM using YRRAAVPPSPSLSRHSSPHQpSEDEEE as substrate after 30 mins in presence of ATP by scintillation counting method relative to control
[24] = test system: PANC-1; assay: Cytotoxicity against human PANC1 cells by MTT assay; assay type: functional, cell-based
[25] = test system: MDA-MB-468; assay: Growth inhibition of human MDA-MB-468 cells at 100 uM by MTT assay relative to control; assay type: functional; conditions: read-out: GI
[26] = test system: A549; assay: Cytotoxicity against human A549 cells by MTT assay; assay type: functional, cell-based
[27] = test system: ZR-75-30; assay: Growth inhibition of human ZR-7530 cells at 100 uM by MTT assay relative to control; assay type: functional; conditions: read-out: GI
[28] = test system: Asteroidea; assay: Inhibition of M-phase starfish oocytes CDK1/cyclin B at 10 uM using histone H1 as substrate after 30 mins in presence of ATP by scintillation counting method relative to control
[29] = test system: MDA-MB-231; assay: Growth inhibition of human MDA-MB-231 cells at 100 uM by MTT assay relative to control; assay type: functional; conditions: read-out: GI
[30] = target: CDK2/Cyclin A2 (Homo sapiens, UniProt P24941); assay: Inhibition of recombinant human CDK2/cyclin A using histone H1 as substrate after 30 mins in presence of ATP by scintillation counting method; assay type: protein-complex assay
[31] = target: Dual specificity tyrosine-phosphorylation-regulated kinase 1A (Homo sapiens) (UniProt Q13627); assay: Inhibition of recombinant full length human GST-fused DYRK1A expressed in Escherichia coli at 10 uM using RS peptide as substrate after 30 mins in presence of ATP by scintillation counting method relative to control
[32] = test system: A549; assay: Growth inhibition of human A549 cells at 100 uM by MTT assay relative to control; assay type: functional; conditions: read-out: GI
[33] = test system: BT-20; assay: Cytotoxicity against human BT20 cells by MTT assay; assay type: functional, cell-based
[34] = test system: MIA PaCa-2; assay: Cytotoxicity against human MIAPaCa2 cells by MTT assay; assay type: functional, cell-based
[35] = test system: BT-20; assay: Growth inhibition of human BT20 cells at 100 uM by MTT assay relative to control; assay type: functional; conditions: read-out: GI
[36] = Inhibition of porcine brain CK1-delta/epsilon using CSK peptide as substrate after 30 mins in presence of ATP by scintillation counting method; design: species or system Sus scrofa

Chain of Dual specificity protein kinase CLK1 (Mus musculus) (P22518 whole entry, looked up, the tested form may be a part): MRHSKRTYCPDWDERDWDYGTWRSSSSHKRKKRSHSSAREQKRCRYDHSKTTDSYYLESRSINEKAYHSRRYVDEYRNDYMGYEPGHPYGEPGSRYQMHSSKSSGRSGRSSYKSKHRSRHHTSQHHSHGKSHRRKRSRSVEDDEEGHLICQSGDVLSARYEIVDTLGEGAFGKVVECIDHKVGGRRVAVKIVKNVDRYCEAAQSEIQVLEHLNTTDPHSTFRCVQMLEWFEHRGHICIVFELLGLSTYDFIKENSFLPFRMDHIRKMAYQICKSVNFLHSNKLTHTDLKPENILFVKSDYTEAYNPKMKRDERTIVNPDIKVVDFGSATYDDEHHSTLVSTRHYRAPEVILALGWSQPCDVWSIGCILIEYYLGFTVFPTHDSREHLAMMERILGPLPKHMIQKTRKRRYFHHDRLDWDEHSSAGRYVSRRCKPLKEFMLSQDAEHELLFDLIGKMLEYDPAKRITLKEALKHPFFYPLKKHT
Chain of Dual specificity protein kinase CLK1 (P22518 whole entry, the tested form may be a part): as the sequence (P22518 whole entry, looked up, the tested form may be a part) above
Chain of Cyclin-dependent kinase 5/CDK5 activator 1 (Homo sapiens) (Q00535 whole entry): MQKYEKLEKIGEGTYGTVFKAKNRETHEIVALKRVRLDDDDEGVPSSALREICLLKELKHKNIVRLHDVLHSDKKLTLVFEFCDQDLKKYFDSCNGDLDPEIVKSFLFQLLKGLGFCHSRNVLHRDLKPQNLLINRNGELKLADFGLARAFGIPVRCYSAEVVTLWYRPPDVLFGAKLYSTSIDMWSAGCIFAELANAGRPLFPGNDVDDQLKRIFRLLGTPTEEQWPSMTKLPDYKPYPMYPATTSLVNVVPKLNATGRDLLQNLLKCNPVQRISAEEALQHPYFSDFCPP
Chain of Cyclin-dependent kinase 5/CDK5 activator 1 (Homo sapiens) (Q15078 99-307 partner limits assumed): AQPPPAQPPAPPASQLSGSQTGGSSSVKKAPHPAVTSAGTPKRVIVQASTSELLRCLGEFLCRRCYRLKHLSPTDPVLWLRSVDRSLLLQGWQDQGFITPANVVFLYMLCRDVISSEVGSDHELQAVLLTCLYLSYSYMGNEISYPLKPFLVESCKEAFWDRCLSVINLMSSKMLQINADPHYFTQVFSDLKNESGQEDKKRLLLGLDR

| SMILES | IC50 [1] [µM] | inhibition of growth at 100 µM [2] [%] | IC50 [3] [µM] | inhibition of growth at 100 µM [4] [%] | IC50 [5] [µM] | IC50 [6] [µM] | inhibition [7] [%] | IC50 [8] [µM] | inhibition at 100 µM [9] [%] | inhibition of growth at 100 µM [10] [%] | inhibition [11] [%] | IC50 [12] [µM] | IC50 [13] [µM] | inhibition [14] [%] | inhibition of growth at 100 µM [15] [%] | inhibition [16] [%] | inhibition of growth at 100 µM [17] [%] | IC50 [18] [µM] | IC50 [19] [µM] | inhibition [20] [%] | further results |
| --- | --- | --- | --- | --- | --- | --- | --- | --- | --- | --- | --- | --- | --- | --- | --- | --- | --- | --- | --- | --- | --- |
| COc1cc2ncnc(Nc3cc(-c4ccccc4)n(-c4ccccc4)n3)c2cc1OC | > 100 | > 50 | < 100 | > 50 | > 10 | > 100 | > 50 | > 100 | > 50 | > 50 | > 50 | 72.9 | > 100 | > 50 | > 50 | > 50 | > 50 | > 10 | 58.8 | > 50 | inhibition of growth at 100 µM [21]: > 50%; IC50 [22]: > 10 µM; inhibition [23]: > 50%; IC50 [24]: 70.7 µM; inhibition of growth at 100 µM [25]: > 50%; IC50 [26]: < 100 µM; inhibition of growth at 100 µM [27]: > 50%; inhibition [28]: > 50%; inhibition of growth at 100 µM [29]: > 50%; IC50 [30]: > 10 µM; inhibition [31]: > 50%; inhibition of growth at 100 µM [32]: > 50%; IC50 [33]: > 100 µM; IC50 [34]: 72.9 µM; inhibition of growth at 100 µM [35]: > 50%; IC50 [36]: < 10 µM |
| COc1cc2ncnc(Nc3cc(-c4ccc(F)cc4)[nH]n3)c2cc1OC | > 100 | > 50 | > 100 | > 50 | > 10 | > 100 | > 50 | > 100 | > 50 | > 50 | > 50 | > 100 | > 100 | > 50 | > 50 | > 50 | > 50 | > 10 | > 100 | > 50 | inhibition of growth at 100 µM [21]: > 50%; IC50 [22]: > 10 µM; inhibition [23]: > 50%; IC50 [24]: 69.4 µM; inhibition of growth at 100 µM [25]: > 50%; IC50 [26]: > 100 µM; inhibition of growth at 100 µM [27]: > 50%; inhibition [28]: > 50%; inhibition of growth at 100 µM [29]: > 50%; IC50 [30]: > 10 µM; inhibition [31]: > 50%; inhibition of growth at 100 µM [32]: > 50%; IC50 [33]: > 100 µM; IC50 [34]: > 100 µM; inhibition of growth at 100 µM [35]: > 50%; IC50 [36]: 1.4 µM |
| COc1cc2ncnc(Nc3cc(-c4ccc(Cl)cc4)[nH]n3)c2cc1OC | 79.5 | > 50 | 98.2 | > 50 | > 10 | 81.2 | > 50 | > 100 | > 50 | > 50 | > 50 | < 100 | > 100 | > 50 | > 50 | > 50 | > 50 | > 10 | 91.5 | > 50 | inhibition of growth at 100 µM [21]: > 50%; IC50 [22]: > 10 µM; inhibition [23]: > 50%; IC50 [24]: > 100 µM; inhibition of growth at 100 µM [25]: > 50%; IC50 [26]: > 100 µM; inhibition of growth at 100 µM [27]: > 50%; inhibition [28]: > 50%; inhibition of growth at 100 µM [29]: > 50%; IC50 [30]: > 10 µM; inhibition [31]: > 50%; inhibition of growth at 100 µM [32]: > 50%; IC50 [33]: > 100 µM; IC50 [34]: < 100 µM; inhibition of growth at 100 µM [35]: > 50%; IC50 [36]: < 10 µM |
| COc1cc2ncnc(Nc3cc(O)[nH]n3)c2cc1OC | 86.7 | > 50 | > 100 | > 50 | > 10 | 69.5 | > 50 | > 100 | > 50 | > 50 | > 50 | > 100 | > 100 | > 50 | > 50 | > 50 | > 50 | > 10 | > 100 | > 50 | inhibition of growth at 100 µM [21]: > 50%; IC50 [22]: > 10 µM; inhibition [23]: > 50%; IC50 [24]: > 100 µM; inhibition of growth at 100 µM [25]: > 50%; IC50 [26]: 74.9 µM; inhibition of growth at 100 µM [27]: > 50%; inhibition [28]: > 50%; inhibition of growth at 100 µM [29]: > 50%; IC50 [30]: > 10 µM; inhibition [31]: > 50%; inhibition of growth at 100 µM [32]: > 50%; IC50 [33]: > 100 µM; IC50 [34]: > 100 µM; inhibition of growth at 100 µM [35]: > 50%; IC50 [36]: < 10 µM |
